Patent US20230183753A1, “Methods of in Vitro Cell Delivery” (Intellia Therapeutics, Inc., priority 2020, published 2023)

Experiments:
Type in all cases: cell-based, human
[1] = system: TRBC; assay: CD3 negative cells after treating activated T cells with LNPs preincubated with ApoE3, ApoE4 or ApoA1, Example 19
Method: All cells were cultured at 37 C for 48 hours. 100,000 T cells were resuspended in complete T cell media without human serum for 15-30 min prior to LNP transfection.
Cells were washed 48 hr post LNP treatment with T cell media to wash and replaced with fresh complete T cell media.
Five days post LNP treatment, T cells were phenotyped by flow cytometry to determine CD3 protein surface expression. […] Cells were subsequently washed, analyzed on a CytoFLEX S instrument (Beckman Coulter) using the FlowJo software package. T cells were gated on size and CD3 expression.

[2] = system: TRBC; assay: CD3 negative cells after treating non-activated T cells with LNPs preincubated with ApoE3, ApoE4 or ApoA1, Example 19
Method: Healthy human donor leukopak was obtained commercially (Hemacare) and T cells were isolated by CD4/CD8 positive selection using the StraightFrom® Leukopak® CD4/CD8 MicroBeads (Miltenyi, Catalog, 130-122-352) following the manufacturer's protocol on MultiMACS Cell24 Separator Plus instrument.
Upon thaw, T cells were cultured in complete T cell media: T cell base media composed of XVIVO-15 media (Fisher, BE02-060Q), 1% Pen-Strep (Corning, 30-002-CI), 50 uM beta-mercaptoethanol, and N-Acetyl L-Cysteine (Fisher, ICN19460325), which was further supplemented with 5% human AB serum (Gemini Bio Products, 100-512), 200 U/mL IL-2 (Peprotech, 200-02), 5 ng/mL IL7 (Peprotech, 200-07), 5 ng/mL IL-15 (Peprotech, 200-15)). At this stage, a portion of cells were activated by addition of 1:100 dilution of TransAct (Miltenyi Biotech, Catalog #130-111-160). All cells were cultured at 37 C for 48 hours.
LNPs were generally prepared as Example 1 with the lipid composition of 50/9/39.5/1.5, expressed as the molar ratio of ionizable lipid A/cholesterol/DSPC/PEG, respectively.
Briefly, T cells were incubated in antibody targeting CD3 (Biolegend, 300441). Cells were subsequently washed, analyzed on a CytoFLEX S instrument (Beckman Coulter) using the FlowJo software package. T cells were gated on size and CD3 expression.

[3] = system: B2M; assay: B2M editing by NGS in T cells with different ionizable lipid formulations (Lipid A, Lipid B), Example 7; details: LNPs formulated with the named ionizable lipid
Method: LNPs formulated with different ionizable lipids were tested for T cell delivery efficacy. T cells were prepared, thawed and activated as in Example 5. Forty-eight hours post activation, T cells were treated with LNPs delivering Cas9 mRNA and gRNA G000529 (SEQ ID NO: 701) targeting B2M. LNPs were generally prepared as Example 1. Lipid A formulations were prepared at a ratio of 50/9/38/3 ionizable Lipid A, cholesterol, DSPC, and PEG2k-DMG. Lipid B compositions were formulated at a ratio of 50/10/38.5/1.5 ionizable lipid nonyl 8-((8,8-bis(octyloxy)octyl)(2-hydroxyethyl)amino)octanoate, cholesterol, DSPC, and PEG2k-DMG.

[4] = system: B2M; assay: B2M negative B cells after LNPs preincubated with ApoE3 or ApoE4, Example 23.4; details: LNPs formulated with the named ionizable lipid
Method: B cells (Hemacare) were thawed and activated in Stemspan SFEM media with 1 ug/ml CpG ODN 2006 (Invivogen, cat. tlrl-2006-1), 50 ng/ml IL-2 (Peprotech, cat. 200-02), 50 ng/ml IL-10 (Peprotech, cat. 200-10), 10 ng/ml IL-15 (Peprotech, cat. 200-15), 1 ng/ml MegaCD40L (Enzo Life Sciences, cat. ALX-522-110-0000), 1% penicillin-streptomycin and 5% human AB serum. B cells were considered activated in the presence of 1 ng/mL MegaCD40L (Enzo Life Sciences, cat. ALX-522-110-0000) and 1 ug/mL CpG ODN 2006 (Invivogen, cat. tlrl-2006-1). Two days following activation, B cells were treated with LNPs delivering Cas9 mRNA and gRNA G000529 (SEQ ID NO: 701) targeting B2M. LNPs were generally prepared as Example 1 using the ionizable lipids described in Table 69 with the lipid composition of 50/10/38.5/1.5, expressed as the molar ratio of ionizable lipid/cholesterol/DSPC/PEG, respectively. […] Five days post LNP treatment, cells were phenotyped by flow cytometry. Briefly, B cells were incubated with antibodies targeting B2M (Biolegend, cat. 395806), CD19 (Biolegend, cat. 302205), CD20 (Biolegend, cat. 302322), CD86 (Biolegend cat. 305420). Cells were subsequently washed in DAPI (Thermo Fisher, cat. D1306) diluted 1:3703 in PBS, processed on a Cytoflex instrument (Beckman Coulter) and analyzed using the FlowJo software package. B cells were gated on size, singlets, and live cells.

[5] = system: B2M locus; assay: Insertion into B cells with LNP and AAV6: GFP positive and B2M negative cells, Example 26; details: Day 7 post-treatment; LNP with the named ionizable lipid 5 μg/ml plus AAV6
Method: B cells were isolated as Example 23.3. and were activated in B cell media 9 as described in Table 64, supplemented with 1 ng/ml MEGACD40L. Two days following activation, B cells were treated with LNPs delivering mRNA encoding Cas9 (SEQ ID NO. 6) and gRNA G000529 (SEQ ID NO: 701) targeting the B2M locus as well as with AAV6 for GFP template insertion into the B2M locus (SEQ ID NO. 722) driven by the EF1α promoter. LNPs were generally prepared as described in Example 1 using Lipid A and Lipid D as the ionizable lipids with the lipid composition of 50/10/38.5/1.5, expressed as the molar ratio of ionizable lipid/cholesterol/DSPC/PEG, respectively.
B cells were phenotyped for GFP expression on Day 7. For B cell phenotyping by flow cytometry, B cells were stained with antibodies targeting CD19 (Biolegend, 302218), CD20 (Biolegend, 302322), CD86 (Biolegend, 374216) and B2M (Biolegend, 316312). Cells were subsequently stained with a viability dye (Biolegend, 422801), washed, and processed on a Cytoflex instrument (Beckman Coulter). Results were analyzed using the FlowJo software package. B cells were gated based on size and viability, followed by GFP expression on the total live population.

[6] = system: B2M; assay: Percent editing by NGS in monocytes and macrophages with Lipid A or Lipid D LNPs, Example 34; details: LNP formulations with the named lipid; Day 0 and Day 5 post thaw
Method: CD14+ cells were isolated as in Example 31 and frozen for future use. CD14+ cells were thawed and cultured in triplicate at 100,000 cells/well in OpTmizer base media as described in Table 2 with 10 ng/mL GM-CSF (Stemcell, 78140.1) on non-tissue culture plates (Falcon, 351172) for ease of detachment. Cells were treated with LNPs delivering mRNA encoding Cas9 (SEQ ID NO. 6) and gRNA G000529 (SEQ ID NO. 701) targeting B2M. For monocytes, LNP addition occurred on the same day as plating on tissue culture plates. […] LNPs were generally prepared as Example 1 using the ionizable lipids indicated in Tables 84 and 85 with the lipid composition of 50/10/38.5/1.5, expressed as the molar ratio of ionizable lipid/cholesterol/DSPC/PEG, respectively. […] The pre-incubated LNPs were added to cells in 1:1 v/v ratio, yielding a final total RNA cargo dose of 2.5 ug/mL or 5 ug/mL.
Briefly, cells were incubated with antibodies targeting CD68, CD11b and HLA-ABC (Biolegend, 311432) as generally as described in Example 31. HLA-ABC targeting antibody was used in place of B2M. Cells were subsequently washed, processed on a Cytoflex instrument (Beckman Coulter) and analyzed using the FlowJo software package. Cells were gated on size, CD68+, CD11b+ followed by HLA-ABC− population. NGS editing data is shown is Table 85. […] Editing was also observed when cells were cultured in RPMI or XVIVO-15 media.

[7] = system: TRAC; assay: Lipid screen in activated B cells: percent editing by NGS, Example 23.3; details: LNPs formulated with the named ionizable lipid, 5 μg/ml
Method: A leukopak from a healthy human donor was obtained commercially (Hemacare) and B cells were isolated by CD19 positive selection using the StraightFrom Leukopak CD19 MicroBead kit (Miltenyi, 130-117-021) on a MultiMACS Cell24 Separator Plus instrument. Following MACS isolation, CD19+ B cells were activated in B Cell Media 3 or B Cell Media 7, each supplemented with 100 ng/ml MEGACD40L. […] LNPs were generally prepared as Example 1 using the ionizable and PEG lipids described in Table 68 with the lipid composition expressed as the molar ratio of ionizable lipid/cholesterol/DSPC/PEG, respectively.
Editing was more efficient in B cells cultured in StemSpan compared to IMDM.

[8] = system: AAVS1; assay: Percent editing at AAVS1 by NGS in NK cells with DNAPK inhibitors, Example 29; details: LNP 10 ug/ml total RNA cargo, seven days post LNP treatment
Method: (§1) Human primary NK cells were activated and expanded using K562-41BBL cells as feeder cells in OpTmizer media with 5% human AB serum, 500 U/mL IL-2, and 5 ng/ml IL-15 for 3 days. NK cells were plated at 50,000 cells per well in triplicate in OpTmizer media supplemented as described above with DNAPKi at concentrations indicated in Tables 78 and 79. […] The pre-incubated LNPs were added to NK cells suspended in the same media at a final concentration of 10 ug/ml of total RNA cargo in triplicate. For a subset of samples, AAV encoding GFP flanked by regions homologous to the AAVS1 edit site were added at a multiplicity of infection (MOI) of 600,000 genome copies following editing.

[9] = system: AAVS1; assay: GFP insertion (GFP++) in NK cells with LNP, AAV and DNAPK inhibitors, Example 29; details: LNP 10 ug/ml, seven days following editing
Method: as §1

[10] = Apo protein 0.08 ug/mL, Biological Replicate1, LNP 4 ug/mL
[11] = Apo protein 0.08 ug/mL, Biological Replicate2, LNP 4 ug/mL
[12] = Apo protein 1.25 ug/mL, Biological Replicate1, LNP 4 ug/mL
[13] = Apo protein 1.25 ug/mL, Biological Replicate2, LNP 4 ug/mL
[14] = Apo protein 5.00 ug/mL, Biological Replicate1, LNP 4 ug/mL
[15] = Apo protein 5.00 ug/mL, Biological Replicate2, LNP 4 ug/mL
[16] = Apo protein 10.00 ug/mL, Biological Replicate1, LNP 4 ug/mL
[17] = Apo protein 10.00 ug/mL, Biological Replicate2, LNP 4 ug/mL

ApoA1: Recombinant Human ApoA1 used to preincubate LNPs
Percent CD3 negative cells [1, 10]: 2.9%
Percent CD3 negative cells [1, 11]: 2.5%
Percent CD3 negative cells [1, 12]: 2.8%
Percent CD3 negative cells [1, 13]: 3.0%
Percent CD3 negative cells [1, 14]: 2.5%
Percent CD3 negative cells [1, 15]: 3.2%
Percent CD3 negative cells [1, 16]: 3.6%
Percent CD3 negative cells [1, 17]: 3.6%
editing (CD3 negative cells) with LNPs preincubated with Apo protein, in words ([1]; Apo protein 0.08-10 ug/mL): none of the tested concentrations of ApoA1 protein led to efficient editing
Percent CD3 negative cells [2, 10]: 4.2%
Percent CD3 negative cells [2, 11]: 6.2%
Percent CD3 negative cells [2, 12]: 4.7%
Percent CD3 negative cells [2, 13]: 4.2%
Percent CD3 negative cells [2, 14]: 6.1%
Percent CD3 negative cells [2, 15]: 4.8%
Percent CD3 negative cells [2, 16]: 5.4%
Percent CD3 negative cells [2, 17]: 3.8%
editing (CD3 negative cells) with LNPs preincubated with Apo protein, in words ([2]; Apo protein 0.08-10 ug/mL): none of the tested concentrations of ApoA1 protein led to efficient editing

CCCCCCCCCOC(=O)CCCCCCCN(CCO)CCCCCCCC(OCCCCCCCC)OCCCCCCCC [Lipid B, nonyl 8-((8,8-bis(octyloxy)octyl)(2-hydroxyethyl)amino)octanoate]
B2M editing in T cells by NGS, in words [3]: Efficient editing was evident

CCCCCCCCCOC(=O)CCCCCCCN(CCO)CCCCCCC(OCCCCCCCC)OCCCCCCCC [Lipid D]
B2M negative B cells, in words [4]: increased percentage of B2M negative cells
percentage of B cells expressing GFP [5]: 14.5%
editing in monocytes and macrophages, in words [6]: showed effective editing

CCCCCCCCCOC(=O)CCCCCCCN(CCO)CCCCCCC(OCCCCCCCC)OCCCCCCCC [Lipid C]
editing in activated B cells by NGS, in words [7]: Efficient editing was evident

Cc1cc2ncnn2cc1Nc1ncc2c(n1)n(C1CCC3(CC1)CC3)c(=O)n2C [Compound 4, 7-methyl-2-((7-methyl-[1,2,4]triazolo[1,5-a]pyridin-6-yl)amino)-9-(spiro[2.5]octan-6-yl)-7,9-dihydro-8H-purin-8-one]
Mean percent editing at AAVS1 ([8]; DNAPKi 0.125 uM): 96.77%
Mean percent editing at AAVS1 ([8]; DNAPKi 0.5 uM): 97.67%
Mean percent editing at AAVS1 ([8]; DNAPKi […]): 97.37%
Percent of NK cells with high GFP expression, Mean ([9]; AAV MOI 600,000, DNAPKi 0.125 uM): 88.10%
Percent of NK cells with high GFP expression, Mean ([9]; AAV MOI 600,000, DNAPKi 0.5 uM): 90.27%
Percent of NK cells with high GFP expression, Mean ([9]; AAV MOI 600,000, DNAPKi […]): 90.63%

CCCCC/C=C\C/C=C\CCCCCCCC(=O)OCC(COC(=O)CCC(OCCCCCCCC)OCCCCCCCC)COC(=O)OCCCN(CC)CC (stereo not shown) [Lipid A, (9Z,12Z)-3-((4,4-bis(octyloxy)butanoyl)oxy)-2-((((3-(diethylamino)propoxy)carbonyl)oxy)methyl)propyl octadeca-9,12-dienoate]
B2M editing in T cells by NGS, in words [3]: Efficient editing was evident
editing in activated B cells by NGS, in words [7]: Efficient editing was evident
B2M negative B cells, in words [4]: increased percentage of B2M negative cells
percentage of B cells expressing GFP [5]: 29.5%
editing in monocytes and macrophages, in words [6]: showed effective editing
